Measured values: patent US20050197406A1, “Method of treatment of lung cancer” (priority 1999, published 2005)
Counter-ions that a name gives are not always drawn.

Columns and labels:
[1] = test system: A549 human lung cancer cells; experiment: A549 human lung cancer xenograft model, β-lapachone alone or with gemcitabine; type: in vivo; conditions: for toxicity: female, athymic nude (Ncr), mouse, in vivo, ip; for retardation of tumor growth, monotherapy: β-lapachone 60 mg/kg or gemcitabine 120 mg/kg alone, e.g. days 24 and 27
Method: Mice receive a total of eight treatments. Mean tumor volume is analyzed; data points in FIG. 4 represent the arithmetic mean +/−SEM of five tumors.

60 cancer cell lines [2] = conditions: FDA approved chemotherapeutic agents, publicly available data; cited from earlier work
60 cancer cell lines [3] = experiment: NCI in vitro screen of 60 cancer cell lines (sulforhodamine B assay); type: cell-based; conditions: Homo sapiens; mean across all cells of NCI60; read-out: LC50 (log 10 molar concentration causing 50% lethality), mean across all cells (converted)
Method: The NCI assays are performed under standardized conditions not designed to mimic the conditions of dosing and use the sulforhodamine B assay as the endpoint. […] When compared to many FDA approved chemotherapeutic agents for common cancer types with publicly available data, none of the compared approved drugs exceed the mean of β-lapachone across all cells and only mitoxantrone equals it. FIG. 2.

[4] = test system: A549 human lung cancer cells; type: in vivo; conditions: 60 mg/kg intraperitoneally every three days, 8 treatments
Method: The animals are randomized into three groups of seven animals per group. […] Mean tumor volume is then analyzed.

normal cells = experiment: In vitro experiments using cell lines of various tissue origins (toxicity to normal cells); type: cell-based
[5] = ip every three days, eight treatments

Nc1ccn([C@@H]2O[C@H](CO)[C@@H](O)C2(F)F)c(=O)n1 [gemcitabine, 2′-deoxy-2′,2′-difluorocytidine monohydrochloride (β-isomer), reference compound]
toxicity [1]: No significant toxicity | retardation of tumor growth, monotherapy [1, 5]: retarded tumor growth to a similar extent

O=C1c2c(O)ccc(O)c2C(=O)c2c(NCCNCCO)ccc(NCCNCCO)c21 [mitoxantrone]
mean LC50 across all cells compared with that of β-lapachone (60 cancer cell lines [2]): equals it

CC1(C)CCC2=C(O1)c1ccccc1C(=O)C2=O [β-lapachone, 3,4-dihydro-2,2-dimethyl-2H-naphtho[1,2-b]pyran-5,6-dione]
CC50 (60 cancer cell lines [3]): 8.51 µM | reduction of mean tumor volume [4]: approximately 50% | toxicity [1]: No significant toxicity | retardation of tumor growth, monotherapy [1, 5]: retarded tumor growth to a similar extent | retardation of tumor growth, 60 mg/kg compared with 40 mg/kg ([1]; β-lapachone in 40% HPBCD, ip every three days, eight treatments): more effective at retarding tumor growth | toxicity to normal cells (normal cells): relatively non-toxic to normal cells
